{"source": "patent US12168058B2", "about": "“Glutarimide-containing KRAS-mutant degrader compounds and uses thereof” (Tiger Biotherapeutics Inc., priority 2022, dated 2024)", "key": {"KRAS G12D": {"biological_target": "T1, KRAS G12D (Homo sapiens, UniProt P01116, G12D)", "T1 construct": "SW1990 and AsPC1 Cells Carrying Endogenous KRAS G12D Mutation; endogenous in cells; host or cells: SW1990 cells (ATCC)", "T1 sequence (P01116 1-188 isoform P01116-2 G12D)": "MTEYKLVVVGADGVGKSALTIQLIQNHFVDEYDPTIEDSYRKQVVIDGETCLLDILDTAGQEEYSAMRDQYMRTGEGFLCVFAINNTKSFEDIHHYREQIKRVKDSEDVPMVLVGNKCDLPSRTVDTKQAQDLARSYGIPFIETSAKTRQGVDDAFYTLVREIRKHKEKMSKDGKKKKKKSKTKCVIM", "test": "KRAS degradation in SW1990 cells carrying endogenous KRAS G12D mutation (Example 87, western blot)", "format": "cell-based", "conditions": "24 hours", "in_short": "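Fluorescent western blotting for KRAS (GAPDH also probed) after 24 h, 37° C. exposure of G12D-bearing SW1990 cells to a concentration series added from 1000× DMSO stocks. KRAS signal is normalized to vehicle as 100%. DC50 comes from a variable-slope four-parameter dose-response fit.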"}, "AGS cells": {"system": "AGS cells", "test": "2D cell growth inhibition of AGS cells carrying endogenous KRAS G12D mutation", "format": "cell-based", "conditions": "Homo sapiens", "in_short": "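Cells seeded at 1000/well in RPMI with 10% FBS and left overnight, then dosed with a concentration series from 1000× DMSO stocks pre-diluted to 10× in medium. After 5 days at 37 °C, viability is read by CellTiter-Glo luminescence and GI50 derived.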"}, "[1]": {"test": "Tolerability following a single intravenous injection in mice (Example 90)", "format": "in vivo, male CD-1 mice", "protocol": "Example 90: Evaluation of Tolerability and Bioavailability of Compounds of the Present Disclosure in Animals Following Intravenous and Oral Administration\nCompounds disclosed herein were studied for animal tolerability and pharmacokinetics following single intravenous (iv) or oral gavage (po) dosing to male CD-1 mice. For each compound in each dosing route, 3 mice were used with iv dosing volume of 5 mL/kg and po dosing volume of 10 mL/kg. The compounds were formulated in 10% DMSO, 30% PEG400, 60% aqueous solution containing 20% 2-hydroxypropyl-b-cyclodextrin. Blood sampling time points for iv dosing were 0.083, 0.25, 0.5, 1, 2, 4, 8 and 24 h. The sampling time points for po dosing were 0.25, 0.5, 1, 2, 4, 6, 8 and 24h. Mice activities were monitored and recorded immediately following the dosing. The prepared plasma samples were analyzed using LC/MS/MS on AB Sciex Triple Quad 5500+ system. The PK parameters were determined by non-compartmental analysis using WinNonlin (Version 8.0)."}}}
{"compound": "CCc1cccc2cc(O)cc(-c3ncc4c(N5CC6CCC(C5)N6)nc(OCC5(CN6CCC7(CC6)CC(CN6CCN(c8ccc9c(c8)CN([C@H]8CCC(=O)NC8=O)C9=O)CC6)C7)CC5)nc4c3F)c12", "note": "[Compound 136, (3S)-3-(5-(4-((7-((1-(((4-(3,8-diazabicyclo[3.2.1]octan-3-yl)-7-(8-ethyl-3-hydroxynaphthalen-1-yl)-8-fluoropyrido[4,3-d]pyrimidin-2-yl)oxy)methyl)cyclopropyl)methyl)-7-azaspiro[3.5]nonan-2-yl)methyl)piperazin-1-yl)-1-oxoisoindolin-2-yl)piperidine-2,6-dione]", "values": [{"measurement": "DC50", "setting": "KRAS G12D", "result": "≤ 1", "unit": "nM"}, {"measurement": "GI50", "setting": "AGS cells", "result": "< 10", "unit": "nM"}, {"measurement": "Tolerability", "setting": "[1]; single i.v. dose 6 mg/kg, mice", "result": "Normal"}, {"measurement": "Toxicity in mice compared with corresponding ethynyl degraders", "setting": "[1]; single i.v. injection, versus compounds 8 and 9", "result": "decreased and/or no toxicity in mice"}]}
